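Tested at 5 concentrations; 48 h exposure; 96-well plates; endpoints linearly interpolated, else capped at highest concentration. At the GI50, growth is halved.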 The source made the active and inactive calls. Rule as the data show it: active = GI50 up to about 1.1 µM and inactive = higher.
Tests used:
Experiment in all cases: inhibition of tumour cell growth, NCI panel, 48 h
SR = test system: SR
HOP-62 = test system: HOP-62
K562 = test system: K562
HT-29 = test system: HT-29
MDA-MB-435 = test system: MDA-MB-435
SW-620 = test system: SW-620
HCT-15 = test system: HCT-15
Hs-578T = test system: Hs-578T
IGROV-1 = test system: IGROV-1
OVCAR-8 = test system: OVCAR-8
CAKI-1 = test system: CAKI-1
SK-MEL-28 = test system: SK-MEL-28
PC-3 = test system: PC-3
M14 = test system: M14
CCRF-CEM = test system: CCRF-CEM
U-251 = test system: U-251
SF-295 = test system: SF-295
EKVX = test system: EKVX
SK-MEL-2 = test system: SK-MEL-2
OVCAR-3 = test system: OVCAR-3

| SMILES | GI50 (SR) | GI50 (HOP-62) | GI50 (K562) | GI50 (HT-29) | GI50 (MDA-MB-435) | GI50 (SW-620) | GI50 (HCT-15) [µM] | GI50 (Hs-578T) | GI50 (IGROV-1) | GI50 (OVCAR-8) | GI50 (CAKI-1) | GI50 (SK-MEL-28) | GI50 (PC-3) | GI50 (M14) | GI50 (CCRF-CEM) | GI50 (U-251) | GI50 (SF-295) | GI50 (EKVX) | GI50 (SK-MEL-2) | GI50 (OVCAR-3) |
| --- | --- | --- | --- | --- | --- | --- | --- | --- | --- | --- | --- | --- | --- | --- | --- | --- | --- | --- | --- | --- |
| O=C(O)CCCSc1ccccc1 | > 100 µM (inactive) | > 100 µM (inactive) | > 100 µM (inactive) | > 100 µM (inactive) | > 100 µM (inactive) | > 100 µM (inactive) | > 100 | > 100 µM (inactive) | > 100 µM (inactive) | > 100 µM (inactive) | > 100 µM (inactive) | > 100 µM (inactive) | > 100 µM (inactive) | > 100 µM (inactive) | > 100 µM (inactive) | > 100 µM (inactive) | > 100 µM (inactive) | > 100 µM (inactive) | > 100 µM (inactive) | > 100 µM (inactive) |
| CC(C)CCC1(O)O[C@H]2C[C@H]3[C@@H]4CCC5CC(=O)C=C[C@]5(C)[C@H]4CC[C@]3(C)[C@H]2[C@@H]1C (stereo not given in full) | 8.36 µM (inactive) | 15 µM (inactive) | 5.07 µM (inactive) | 7.64 µM (inactive) | 11.6 µM (inactive) | 12.1 µM (inactive) | 11.2 | 2.82 µM (inactive) | 15.6 µM (inactive) | 14.2 µM (inactive) | 14.5 µM (inactive) | 11.5 µM (inactive) | 5.02 µM (inactive) | 15.9 µM (inactive) | 3.18 µM (inactive) | 10.7 µM (inactive) | 11.7 µM (inactive) | 16.7 µM (inactive) | 15.2 µM (inactive) | 10.8 µM (inactive) |
| COc1ccccc1C(=O)c1ccc2ccccc2c1 | 3.24 µM (inactive) | 33.7 µM (inactive) | 4 µM (inactive) | 16.7 µM (inactive) | 3.47 µM (inactive) | 8.3 µM (inactive) | 9.55 | 12.3 µM (inactive) | 11.3 µM (inactive) | 26.4 µM (inactive) | 13.8 µM (inactive) | 39.3 µM (inactive) | 23.8 µM (inactive) | 11.9 µM (inactive) | 20.2 µM (inactive) | 13.3 µM (inactive) | 22 µM (inactive) | 16.5 µM (inactive) | 14.1 µM (inactive) | 9.4 µM (inactive) |
| CCOC(=O)C(NC(=O)CC)(Nc1ccc(F)c(Cl)c1)C(F)(F)F (stereo not given) | > 45.6 µM (inactive) | > 100 µM (inactive) | > 29.2 µM (inactive) | > 100 µM (inactive) | > 92.9 µM (inactive) | > 100 µM (inactive) | > 83.4 | > 100 µM (inactive) | > 100 µM (inactive) | > 100 µM (inactive) | > 100 µM (inactive) | > 100 µM (inactive) | > 64.1 µM (inactive) | 40.5 µM (inactive) | 35.6 µM (inactive) | > 100 µM (inactive) | > 76.4 µM (inactive) | > 100 µM (inactive) | > 70 µM (inactive) | > 100 µM (inactive) |
| N#Cc1c(N2CCOCC2)[nH]c(=O)c(C(c2c(Cl)cccc2Cl)c2c(O)c(C#N)c(N3CCOCC3)[nH]c2=O)c1O | 5.89 µM (inactive) | 22.1 µM (inactive) | 11.2 µM (inactive) | 15.4 µM (inactive) | 16.6 µM (inactive) | 17.7 µM (inactive) | 15 | 19.5 µM (inactive) | 18.1 µM (inactive) | 18.6 µM (inactive) | 18.1 µM (inactive) | 17.9 µM (inactive) | 17.8 µM (inactive) | 17.9 µM (inactive) | 15.1 µM (inactive) | 16.7 µM (inactive) | 30.5 µM (inactive) | 18.3 µM (inactive) | 17.6 µM (inactive) | 16.4 µM (inactive) |
| CC(=O)Nc1ccc(CNc2cc(=O)[nH]c(=O)[nH]2)cc1 | > 100 µM (inactive) | > 100 µM (inactive) | > 100 µM (inactive) | > 100 µM (inactive) | > 100 µM (inactive) | > 100 µM (inactive) | > 100 | > 100 µM (inactive) | > 100 µM (inactive) | > 100 µM (inactive) | > 100 µM (inactive) | > 100 µM (inactive) | > 100 µM (inactive) | > 100 µM (inactive) | > 100 µM (inactive) | > 100 µM (inactive) | > 100 µM (inactive) | > 100 µM (inactive) | > 100 µM (inactive) | > 100 µM (inactive) |
| CC1(C)CCCC2CC2CCC(C)(C)C1=O (stereo not given) | 10.8 µM (inactive) | > 100 µM (inactive) | 17.8 µM (inactive) | 44.7 µM (inactive) | 39.5 µM (inactive) | > 100 µM (inactive) | 71.9 | > 100 µM (inactive) | > 100 µM (inactive) | 82.8 µM (inactive) | > 100 µM (inactive) | > 100 µM (inactive) | 51.1 µM (inactive) | 42 µM (inactive) | 15.7 µM (inactive) | 19.1 µM (inactive) | > 100 µM (inactive) | 57.9 µM (inactive) | 31.8 µM (inactive) | 25.5 µM (inactive) |
| CSc1c(C#N)c(O)nc(N)c1C(=O)Nc1ccc(Cl)cc1 | > 69.2 µM (inactive) | 16 µM (inactive) | 4.54 µM (inactive) | 22.2 µM (inactive) | 3.55 µM (inactive) | 5.65 µM (inactive) | 11.5 | 31 µM (inactive) | 23.2 µM (inactive) | 19.1 µM (inactive) | 12.6 µM (inactive) | 14.7 µM (inactive) | 13.2 µM (inactive) | 5.2 µM (inactive) | 30.3 µM (inactive) | 19.5 µM (inactive) | 11 µM (inactive) | 14.9 µM (inactive) | 6.25 µM (inactive) | 14.9 µM (inactive) |
| CC1(C)CCC2=C(O1)/C(=N\Nc1ccc(S(N)(=O)=O)cc1)c1ccccc1C2=O | 5.61 µM (inactive) | 7.8 µM (inactive) | 28.4 µM (inactive) | 14.7 µM (inactive) | 10.7 µM (inactive) | 20.7 µM (inactive) | 19.2 | 3.13 µM (inactive) | 14.2 µM (inactive) | 10.6 µM (inactive) | 14.8 µM (inactive) | 18.7 µM (inactive) | 13.6 µM (inactive) | 16.1 µM (inactive) | 11.3 µM (inactive) | 8.73 µM (inactive) | 11.8 µM (inactive) | 16.7 µM (inactive) | 11.9 µM (inactive) | 16.7 µM (inactive) |
| Clc1cc2ncn(C3CCCO3)c2cc1Cl (stereo not given) | 48.3 µM (inactive) | > 100 µM (inactive) | 96.2 µM (inactive) | 68.4 µM (inactive) | > 100 µM (inactive) | 98.2 µM (inactive) | > 100 | 48.8 µM (inactive) | 17.3 µM (inactive) | 77.8 µM (inactive) | 58.1 µM (inactive) | > 100 µM (inactive) | 48.2 µM (inactive) | > 100 µM (inactive) | > 100 µM (inactive) | 69.7 µM (inactive) | > 100 µM (inactive) | 27.5 µM (inactive) | > 100 µM (inactive) | 49.8 µM (inactive) |

From ChEMBL document CHEMBL1201862, “PubChem BioAssay data set” (2004)
